The subject of one assay is tau. The conditions noted are these: Corcoran et al., 2010; cited from earlier work.
A further assay concerns T1, His-tagged-Hsp90.
T1 construct: fused on or other part: His tag (captured on Ni2+-coated beads)
The assay can be described thus: Hsp90 biochemical assay (AlphaLISA). It is filed as binding. The conditions noted are these: IC50 class; AlphaLISA (primary assay); read-out: Hsp90 inhibitory activity. Here is the method:
This assay employs biotinylated geldanamycin, His-tagged-Hsp90, and Ni^+2 coated beads. This assay is homogenous and miniaturized to 384-well plates. Measurement of binding activity was performed on an Envision reader. […] This assay is the primary assay for evaluating compounds of the invention.
(In general: Bead proximity is the source of the signal in Alpha formats.)

Another assay deals with Hsp70. The assay can be described thus: Hsp90 cell based functional assay (Western blot for Hsp70, Hsp90). The note with it: for Hsp 70 agonist activity: concentration at which Hsp70 is increased >2-fold: fold noted in cell: >2-fold; for Hsp 70 agonist activity: EC50 at which Hsp70 is increased two-fold: cells treated 24 h, Western blot; for EC50: read-out: Hsp 70 agonist activity; for Hsp 70 agonist activity, result in words: alternative result printed in the same cell.

The target of assay [1] is truncated alpha-Hsp90 protein (Homo sapiens, UniProt P07900). In words: Hsp90 biochemical assay (fluorescence polarization). The format is binding. The note with it: footnotes (1)-(9) of Table 3, read-out: Hsp90 FP assay result. Here is the method:
Hsp90 inhibitory activity of the compounds of the invention was assessed using a fluorescence polarization (FP) assay using FITC-labeled geldanamycin and truncated alpha-Hsp90 protein. Measurement of binding activity was performed on BMG CLARIOstar® reader (BMG Labtech, Ortenberg, Germany).

Values joined by “and” are separate entries in the source; they are usually repeats but may differ in a detail not shown here. Equal entries are not always repeated.

Method for Hsp70: Cells were treated with compounds of the invention for 24 h and then lysed in a buffer containing NP-40, orthovanadate, and protease inhibitors. Western blots were performed with antibodies specific to Hsp70, Hsp90, or actin (as control).

With `O=[Se](=O)(O)O` [Sodium selenate], the “efficacy in TMHT tau model” value in the assay with tau is “effective in the TMHT tau model”.

Turning to `Cc1cc(-c2c(Cl)cc(Cl)c3c2CCO3)nc(N)n1` [compound 5, 4-(5,7-Dichloro-2,3-dihydrobenzofuran-4-yl)-6-methylpyrimidin-2-amine], the IC50 in the assay on His-tagged-Hsp90 was below 1 µM. In addition, the “Hsp 70 agonist activity: concentration at which Hsp70 is increased >2-fold” value with Hsp70 is given as above 2 fold at 0.4-1.0 μM.

Consider `CCc1cc(-c2c(Cl)cc(Cl)c3c2CCO3)nc(N)n1` [compound 6, 4-(5,7-dichloro-2,3-dihydrobenzofuran-4-yl)-6-ethylpyrimidin-2-amine], for which the IC50 with His-tagged-Hsp90 is below 1 µM. In the assay on Hsp70, the “Hsp 70 agonist activity: EC50 at which Hsp70 is increased two-fold” value is at least 10 µM.

As to `CC(C)c1cc(-c2c(Cl)cc(Cl)c3c2CCO3)nc(N)n1` [compound 7, 4-(5,7-dichloro-2,3-dihydrobenzofuran-4-yl)-6-isopropylpyrimidin-2-amine], the values for the IC50 (in the assay with His-tagged-Hsp90; in assay [1]) were below 1 µM and above 10 µM, respectively. In the assay with Hsp70, the EC50 was above 10 µM.

As for `COc1cc(-c2c(Cl)cc(Cl)c3c2CCO3)nc(N)n1` [compound 8, 4-(5,7-dichloro-2,3-dihydrobenzofuran-4-yl)-6-methoxypyrimidin-2-amine], the IC50 with His-tagged-Hsp90 is below 1 µM; in assay [1] it was 5.5 µM and 6.2 µM. For the same compound, the EC50 in the assay on Hsp70 was above 10 µM.

Take `COc1cc(-c2nc(N)nc(C)c2C)c(Cl)cc1Cl` [compound 9, 4-(2,4-Dichloro-5-methoxyphenyl)-5,6-dimethylpyrimidin-2-amine]: the IC50 with His-tagged-Hsp90 is below 1 µM; in assay [1], 1 µM and 1.4 µM. Besides, the “Hsp 70 agonist activity: concentration at which Hsp70 is increased 1.5-fold” value in the assay with Hsp70 (fold noted in cell: 1.5-fold) was 1.5-fold at 1 μM.

Consider `Cc1nc(N)nc(-c2c(Cl)cc(Cl)c3c2CCO3)c1C` [compound 10, 4-(5,7-Dichloro-2,3-dihydrobenzofuran-4-yl)-5,6-dimethylpyrimidin-2-amine], for which the IC50 with His-tagged-Hsp90 was below 1 µM; in assay [1], 2.3 µM and 2.4 µM. For the same compound, the “Hsp 70 agonist activity: concentration at which Hsp70 is increased >2-fold” value in the assay with Hsp70 was >2-fold at 0.4 μM.

For `COc1cc(-c2nc(N)nc3c2CCC3)c(Cl)cc1Cl` [compound 12, 4-(2,4-Dichloro-5-methoxyphenyl)-6,7-dihydro-5H-cyclopenta[d]pyrimidin-2-amine], the IC50 in the assay on His-tagged-Hsp90 is below 1 µM; in assay [1] it was 1.7 µM. Besides, the “Hsp 70 agonist activity: concentration at which Hsp70 is increased >2-fold” value with Hsp70 is recorded as >2-fold at ≥10 μM.

Regarding `Nc1nc2c(c(-c3c(Cl)cc(Cl)c4c3CCO4)n1)CCC2` [compound 13, 4-(5,7-Dichloro-2,3-dihydrobenzofuran-4-yl)-6,7-dihydro-5H-cyclopenta[d]pyrimidin-2-amine], the IC50 in the assay on His-tagged-Hsp90 was below 1 µM; in assay [1], 1.8 µM. For the same compound, the EC50 in the assay with Hsp70 is above 10 µM.

As for `CN(C)CCOc1cc(-c2nc(N)nc3c2CCC3)c(Cl)cc1Cl` [compound 14, 4-(2,4-dichloro-5-(2-(dimethylamino)ethoxy)phenyl)-6,7-dihydro-5H-cyclopenta[d]pyrimidin-2-amine], in the assay with His-tagged-Hsp90, the IC50 is below 1 µM. In addition, the “Hsp 70 agonist activity: concentration at which Hsp70 is increased >2-fold” value in the assay on Hsp70 is >2-fold at 10 μM.

Take `COc1cc(-c2nc(N)nc3cc[nH]c23)c(Cl)cc1Cl` [compound 19, 4-(2,4-Dichloro-5-methoxyphenyl)-5H-pyrrolo[3,2-d]pyrimidin-2-amine]: the IC50 in the assay on His-tagged-Hsp90 was below 1 µM. Moreover, the “Hsp 70 agonist activity: concentration at which Hsp70 is increased >2-fold” value with Hsp70 is >2-fold at 0.4-1 μM.

Regarding `Cn1ccc2nc(N)nc(-c3c(Cl)cc(Cl)c4c3CCO4)c21` [compound 21, 4-(5,7-dichloro-2,3-dihydrobenzofuran-4-yl)-5-methyl-5H-pyrrolo[3,2-d]pyrimidin-2-amine], in the assay with His-tagged-Hsp90, the IC50 was 1 to 4 µM. For the same compound, the EC50 in the assay with Hsp70 is above 10 µM.

In the case of `CCn1ccc2nc(N)nc(-c3c(Cl)cc(Cl)c4c3CCO4)c21` [compound 22, 4-(5,7-dichloro-2,3-dihydrobenzofuran-4-yl)-5-ethyl-5H-pyrrolo[3,2-d]pyrimidin-2-amine], the IC50 in the assay on His-tagged-Hsp90 lay within 4 to 10 µM. The EC50 in the assay with Hsp70 is above 10 µM.

For `CCOC(=O)c1cc2c(-c3c(Cl)cc(Cl)c4c3CCO4)nc(N)nc2s1` [compound 23, Ethyl-2-amino-4-(5,7-dichloro-2,3-dihydrobenzofuran-4-yl)thieno[2,3-d]pyrimidine-6-carboxylate], the IC50 with His-tagged-Hsp90 was 4 to 10 µM; in assay [1], 11.1 µM. Further, the “Hsp 70 agonist activity: EC50 at which Hsp70 is increased two-fold” value in the assay with Hsp70 is 3.3 µM.

`CCNC(=O)c1cc2c(-c3c(Cl)cc(Cl)c4c3CCO4)nc(N)nc2s1` [compound 24, 2-amino-4-(5,7-dichloro-2,3-dihydrobenzofuran-4-yl)-N-ethylthieno[2,3-d]pyrimidine-6-carboxamide]: in the assay on His-tagged-Hsp90, the IC50 is below 1 µM. The “Hsp 70 agonist activity: EC50 at which Hsp70 is increased two-fold” value in the assay on Hsp70 was found to be 0.4 µM.

Take `COc1cc(-c2nc(N)nc3cc[nH]c23)c(Cl)cc1F` [compound 25]: the IC50 was 4 to 10 µM in the assay with His-tagged-Hsp90; 12.1 µM and 19.3 µM in assay [1]. The “Hsp 70 agonist activity, result in words” value in the assay on Hsp70 is reported as “no observable effect”. Also, the “Hsp 70 agonist activity: fold increase of Hsp70” value in the assay on Hsp70 (concentration not given, alternative result: no observable effect) amounted to 1.5 fold.

Take `COc1cc(-c2nc(N)nc3ccn(C)c23)c(Cl)cc1F` [compound 26]: in the assay on His-tagged-Hsp90, the IC50 was in the range of 1 to 4 µM. Moreover, in the assay with Hsp70, the “Hsp 70 agonist activity, result in words” value is reported as “no observable effect” and the “Hsp 70 agonist activity: EC50 at which Hsp70 is increased two-fold” value was determined as 3.3 µM. Moreover, in assay [1], the IC50 was 8.5 µM and 11.2 µM.

With `CN(C)CCOc1cc(-c2nc(N)nc3cc[nH]c23)c(Cl)cc1Cl` [compound 27], in the assay with His-tagged-Hsp90, the IC50 lay in the range of 1 to 4 µM. In the assay on Hsp70, the “Hsp 70 agonist activity: EC50 at which Hsp70 is increased two-fold” value is 10 µM.

With `NC(=O)c1cc2c(-c3c(Cl)cc(Cl)c4c3CCO4)nc(N)nc2s1` [compound 29], the IC50 in the assay with His-tagged-Hsp90 is below 1 µM. Moreover, the “Hsp 70 agonist activity: EC50 at which Hsp70 is increased two-fold” value in the assay on Hsp70 was found to be 0.4 µM.

As to `COc1nc(N)nc(-c2cc(OC)c(Cl)cc2Cl)n1` [compound 36], the IC50 in the assay on His-tagged-Hsp90 is below 1 µM. Also, the “Hsp 70 agonist activity: EC50 at which Hsp70 is increased two-fold” value with Hsp70 is above 10 µM.

In the case of `COc1cc(-c2cc(Cl)nc(N)n2)c(Cl)cc1Cl` [compound 39], the IC50 in the assay on His-tagged-Hsp90 is below 1 µM. Moreover, the “Hsp 70 agonist activity: EC50 at which Hsp70 is increased two-fold” value with Hsp70 turned out to be 0.4 µM.

`CC(C)(O)c1cc2c(-c3c(Cl)cc(Cl)c4c3CCO4)nc(N)nc2s1` [compound 77, 2-(2-amino-4-(5,7-dichloro-2,3-dihydrobenzofuran-4-yl)thieno[2,3-d]pyrimidin-6-yl)propan-2-ol]: the IC50 in the assay with His-tagged-Hsp90 lay within 1 to 4 µM.

Values taken from patent publication US10336768B2, “Pyrimidine compounds and methods using the same” (Yuma Therapeutics, Inc., priority 2014, dated 2019).
